Data on 3 molecules can be found in patent US5912351A, “Anhydrous 1,4-Dihydropyridines and salts thereof” (Recordati, S.A. Chemical and Pharmaceutical Company, priority 1995, dated 1999).

Experiment [1] concerns mouse peritoneal macrophages. Nature of the experiment: Cholesteryl ester hydrolysis in macrophages. In kind it is cell-based. As to conditions: AcLDL 50 μg/ml + S-58035 1 μg/ml + 5 × 10^-6 M compound. As for the experimental part:
These experiments were performed by incubating cells preloaded with [^3 H]cholesterol in the presence of the specific ACAT inhibitor S-58035. The blockage of intracellular reesterification of cholesterol allowed the assessment of the ability of cells to hydrolyze the accumulated cholesterol esters.
For studies involving the quantitation of the hydrolysis of cholesteryl esters in cytoplasmic lipid droplets, cells, prepared according to the procedure in Example 6A, are loaded with cholesteryl esters by exposure for 24 hours to the medium containing 50 μg/ml acetyl LDL. [1,2-^3 H]Cholesterol is included in all loading media at a concentration of 0.5 μCi/ml. After 24 hours loading period, during which time the radiolabeled cholesterol is incorporated and esterified, the cell monolayers are washed and incubated an additional 24 hours in medium containing 0.1% bovine serum albumin to allow the intracellular pools of labelled cholesterol to equilibrate to the same specific activity. To quantitate cholesteryl ester hydrolysis, the loaded cells are incubated for up to 24 hours in Dulbecco's minimum essential medium containing, 0.1% bovine serum albumin, lercanidipines, and the compound S-58035, an inhibitor of acyl-coenzyme A-cholesterol acyltransferase. The inhibition of acyl-coenzyme A-cholesterol acyltransferase prevents the reesterification of any free cholesterol generated by cholesteryl ester hydrolysis and thus allows assessment of the activity of the hydrolase. The hydrolysis of the cholesteryl esters is quantified by determining the decrease of radiolabeled cholesteryl esters (E. H. Harrison et al., J. Lipid. Res. 31: […] with phosphate buffered saline and extracted with hexane:isopropanol (3:2 v/v). The media were extracted with chloroform:methanol (2:1 v/v). After solvent removal, free and esterified cholesterol were separated by TLC (isooctane:diethyl ether:acetic acid, 75:25:2 by volume). Cholesterol mass or radioactivity of the spots were determined by an enzymatic method (Boehringer Mannheim, Germany) (F. Bernini et al., Atherosclerosis 104: 19 (1993)) or by liquid scintillation counting (Lipoluma Lumac, Landgraf, The Netherlands) respectively.

Experiment [2] concerns renal hypertensive dogs. Kind of experiment: Blood pressure in renal hypertensive dogs, oral administration. It is filed as in vivo, dog. Conditions: for ED25: Canis lupus familiaris, linear regression analysis, read-out: ED25 (dose inducing 25% decrease in DBP at peak effect), 95% C.L. On the procedure: The antihypertensive effects of oral administration of lercanidipine and its enantiomers were tested in renal hypertensive dogs.
Male Beagle dogs weighing 12-13 kg, aging 1-3 years (Nossan Allevamenti, Italy) were used. Chronic sustained hypertension was induced by bilateral renal artery constriction, according to the Goldblatt method "two-kidney, two clip hypertension". Under barbiturate anaesthesia (35 mg/kg i.v.), during two different surgical interventions one month apart from each other, both renal arteries were clipped with original renal silver clips and narrowed by about 60-70%. After two months from the last intervention,an experimental renal hypertension was produced and the animals were suitable for the implantation of a catheter. Under sodium pentobarbital anaesthesia (35 mg/kg i.v.), in sterile conditions, the dogs were catheterized by inserting an indwelling cannula (PE 200 Clay Adams) into the ascending aorta through the right common carotid artery. The catheter was subcutaneously exteriorized at the back of the neck, filled with heparinized saline solution and flushed daily to prevent clotting. After a week recovery time from surgery, the animals were connected to a HP 1290A pressure transducer connected to an HP 8805B carrier amplifier of a Hewlett Packard HP 7700 multichannel polygraph, to monitor the arterial blood pressure. Heart rate was manually computed from the pressure trace.
All animals were alternatively treated with placebo, lercanidipine and its (R)- and (S)- enantiomers. The drugs were administered orally with a straight round aseptic tip catheter (Pores Serlat--France). The drugs were suspended in aqueous 0.5% Methocel A4C plus Antifoam M10 (10%). The amount administered was 1 ml/kg.
The suspending medicine was used as placebo. During experimental performance, the arterial blood pressure was continuously recorded 30 min. before (basal values) and up to 8 hours after drug administration.
The ED25 values (dose inducing 25% decrease in DBP at peak effect) were evaluated by linear regression analysis and summarized in the Table 4.

Experiment [3] has as its system rat aortic smooth muscle cells (myocytes). Nature of the experiment: Myocytes growth inhibition measured by cell count (rat myocytes). As to conditions: 72 h, cell count after 72 hours, read-out: IC50 = concentration required to inhibit cell growth by 50%. In kind it is cell-based. As for the experimental part:
Migration of myocytes was investigated for the present invention using rat aortic smooth muscle cells in the presence of fibrinogen as chemotactic factor, whereas for studies on their proliferation rat and human cells were used. Cell count and [3H]-thymidine incorporation were used to evaluate myocytes growth. The methodology was as follows:
Myocytes were cultured from the intima-medial layer of the aortas of male Sprague-Dawley rats (200-250 g). Cells were grown in monolayers at 37° C. in a humidified atmosphere of 5% CO2 in Eagle's minimum essential medium supplemented with 10% (v/v) fetal calf serum, 100 U/ml penicillin, 0.1 mg/ml streptomycin, 20 mM tricine buffer and 1% (v/v) non-essential amino acid solution. The medium was changed every third day. Cells were used between the 4th and 10th passage. Cell viability was timely assessed by trypan blue exclusion. Myocytes were identified for growth behavior, morphology and using monoclonal antibody specific for a-actin, the actin isoform typical of myocytes. Human vascular myocytes (A 617 from human femoral artery) kindly provided by Prof. G. Gabbiani of The General Pathology Institute (Geneva University--Switzerland) were grown in the same culture conditions. (These or other human vascular myocytes can be obtained and cultured as described by Corsini et al., Atherosclerosis, 101: 117-125, (1993); Corsini et al., Pharm. Res, 23: 173 (1991); Ross, R, J. Cell Bio., 50: 172, (1971); and Skalli, 0. et al., J. Cell Bio., 103: 2787 (1986)).
Cells were seeded at various densities for rat (2×10^5) and human (5 10×10^4) myocytes/petri dish (35 mm), and incubated with Eagle's minimum essential medium supplemented with 10% fetal calf serum. Twenty-four hours later the medium was changed to one containing 0.4% fetal calf serum to stop cell growth, and the cultures were incubated for 72 hours. At this time (time 0) the medium was replaced by one containing 10% fetal calf serum in the presence or absence of known concentrations of the 1,4-dihydropyridine compounds being tested (shown in Table 1). The incubation was continued for an additional 72 hours at 37° C. Just before the addition of the test substances, an aliquot from each petri dish was used for cell counting. Cell proliferation was evaluated by cell count after trypsinization of the monolayers using a Coulter Counter model ZM. Cell viability was assessed by trypan blue exclusion, and found to be greater than 95% at the drug concentrations used.

Where [4] appears, read: myocytes from SD (Sprague Dawley) rat.
Where [5] appears, read: myocytes from SHR (Spontaneously Hypertensive) rat.
The mark [6] stands for this setting: myocytes from WK (Wistar Kyoto) rat.

Like-named read-outs stand apart in the source and are kept apart here.

As to `COC(=O)C1=C(C)NC(C)=C(C(=O)OC(C)(C)CN(C)CCC(c2ccccc2)c2ccccc2)C1c1cccc([N+](=O)[O-])c1` (racemic) [LE, methyl 1,1,N-trimethyl-N-(3,3-diphenylpropyl)-2-aminoethyl 1,4-dihydro-2,6-dimethyl-4-(3-nitrophenyl)-pyridine-3,5-dicarboxylate], the “% of cholesteryl ester” value in experiment [1] came out at 12 ± 1.2%. Also, in experiment [2], the arterial blood pressure result is “dose-related decrease” and the ED25 was found to be 0.9 mg/kg.

`COC(=O)C1=C(C)NC(C)=C(C(=O)OC(C)(C)CN(C)CCC(c2ccccc2)c2ccccc2)[C@@H]1c1cccc([N+](=O)[O-])c1` [(R)-LE, (R)-(-)METHYL 1,1-N-TRIMETHYL-N-(3,3-DIPHENYLPROPYL)-2-AMINOETHYL 1,4-DIHYDRO-2,6-DIMETHYL-4-(3-NITROPHENYL)PYRIDINE-3,5-DICARBOXYLATE]: the values for the IC50 in experiment [3] (setting [4]), in experiment [3] (setting [5]) and in experiment [3] (setting [6]) were 30.7 µM, 9.2 µM and 15.3 µM, respectively. In addition, in experiment [1], the “% of cholesteryl ester” value was found to be 16 ± 2.1%. The ED25 in experiment [2] was greater than 30 mg/kg. In addition, the “decrease in DBP” value in experiment [2] (up to 30 mg/kg) is less than 10%.

Take `COC(=O)C1=C(C)NC(C)=C(C(=O)OC(C)(C)CN(C)CCC(c2ccccc2)c2ccccc2)[C@H]1c1cccc([N+](=O)[O-])c1` [(S)-LE, (S)-(+)-METHYL 1,1-N-TRIMETHYL-N-(3,3-DIPHENYLPROPYL)-2-AMINOETHYL 1,4-DIHYDRO-2,6-DIMETHYL-4-(3-NITROPHENYL)PYRIDINE-3,5-DICARBOXYLATE]: in experiment [3] (setting [4]), the IC50 worked out at 33.3 µM. Further, the IC50 in experiment [3] (setting [5]) was determined as 16.8 µM. In addition, in experiment [3] (setting [6]), the IC50 is 20.7 µM. Further, the “% of cholesteryl ester” value in experiment [1] came out at 14 ± 0.4%. In experiment [2], the arterial blood pressure result is “dose-related decrease”, the “efficacy at lowering blood pressure relative to the racemate” value was “two fold more efficacious” and the ED25 came to 0.4 mg/kg.
